Measurements: patent EP4768485A1 (Guangzhou Baiyunshan Pharmaceutical Holdings Co., Ltd. …, priority 2023, dated 2025)
In brackets after ≈: the same amount, converted by molar mass. Like-named read-outs stand apart in the source and are kept apart here.

Experiments:
[1] = target: EcFabI (Escherichia coli, UniProt P0AEK4); experiment: FabI enzymatic activity by NADH/NADPH oxidation (fluorescence), EcFabI; type: biochemical; settings: 9 nmol/L EcFabI; trans-dodecenoyl-CoA and NADH; pH 6.5
Procedure: (§3) In this test example, the enzymatic activity was evaluated by monitoring the oxidation of cofactor NADH/NADPH using a microplate reader.
(§4) The compound was dissolved in DMSO and added to a 384-well plate using ECHO665. Serial 3-fold or 4-fold dilutions were prepared to generate 10 dose points with two replicates per concentration, ensuring a final DMSO concentration 1% in each reaction well. Then, a FabI protein solution was added, and the protein was prepared in a buffer containing 100 mmol/L PBS, 0.05% Tween-20, and 150 mmol/L NaCl (pH 6.5), so that the final concentrations of SaFabI and EcFabI proteins were 15 nmol/L and 9 nmol/L, respectively. The prepared 5 µL of 15 nmol/L SaFabI and 9 nmol/L EcFabI were added to a 384-well assay plate, and centrifuged at 1000 rpm for 1 minute. Then, the plate was pre-incubated in a temperature-controlled shaker at 30 °C for 20 minutes. Moreover, substrates trans-octenoyl-CoA, NADPH, trans-dodecenoyl-CoA, and NADH were diluted in a buffer containing 100 mmol/L PBS, 0.05% Tween-20, and 15 0 mmol/L NaCl (pH 6.5) respectively, and their concentrations were adjusted to 300 µmol/L, 300 µmol/L, 600 µmol/L, and 150 µmol/L, respectively. For SaFabI, 5 µL of 300 µmol/L trans-octenoyl-CoA and 5 µL of 300 µmol/L NADPH were added to initiate the reaction. Immediately after initiation, the plate was placed into the microplate reader, and fluorescence signals (Ex 340 nm/Em 460 nm) were recorded every 0.5 minutes for at least 10 minutes. Similarly, 5 µL of 600 µmol/L trans-dodecenoyl-CoA and 5 µL of 150 µmol/L NADH were added to initiate reaction of EcFabI. Immediately after initiation, the plate was immediately placed into the microplate reader, and fluorescence signals (Ex 340 nm/Em 460 nm) were recorded every 0.5 minutes for at least 10 minutes. The reaction rate (fluorescence signal per minute) of each well was calculated from the fluorescence values. The inhibitory effect of the compound on the protein was then calculated based on the reaction rate, and the IC50 value for inhibition of enzyme activity by the compound was determined by fitting the data using GraphPad Prism 6 with log (inhibitor) vs. response variable slope model. The fitting equation is: Y=Bottom + (Top-Bottom)/(1+10^((LogIC50-X)*HillSlope)), wherein Y represents the known percentage of residual enzyme activity, and X represents the known Log concentration of the compound.

[2] = system: MRSA NRS 384; experiment: MIC, agar plate two-fold dilution; type: cell-based, Staphylococcus aureus; settings: MHA, 37°C, 16-20 hours; for MIC: Staphylococcus aureus
Procedure: (§1) In this test example, the minimum inhibitory concentration (MIC) of the compound was determined.
(§2) The test drug concentration was set to be within a range of 0.008 µg/mL to 128 µg/mL in a two-fold serial dilution using an agar plate two-fold dilution method. The sample was dissolved in DMSO to prepare a 2 mL solution with a concentration of 1.92 mg/mL. The control group was prepared in sterile distilled water to obtain a concentration of 1.92 mg/mL. 1 mL of the prepared drug solution was added to a sterile culture dish, followed by addition of 14 mL of MHA culture medium at approximately 60°C. After thorough mixing, 1 mL of sterilized distilled water was added for two-fold dilution, resulting in a final drug concentration of 64 µg/mL, 32 µg/mL, 16 µg/mL, 8 µg/mL, 4 µg/mL, 2 µg/mL, 1 µg/mL, 0.5 µg/mL, 0.25 µg/mL, 0.125 µg/mL, 0.06 µg/mL, 0.03 µg/mL, 0.015 µg/mL, and 0.008 µg/mL (wherein the final concentrations of samples 2, 4, and 9 were diluted downward starting from 128 µg/mL), and set aside for later use. The prepared bacterial suspension was inoculated onto drug-containing MHA culture medium with a multi-point inoculator, with an inoculation volume of approximately 10^4 CFU per point. A sterile control group (1 mL DMSO + 14 mL MHA culture medium and 1 mL sterile distilled water + 14 mL MHA culture medium) was set up.

[3] = system: MSSA ATCC 29213; experiment: MIC, agar plate two-fold dilution; type: cell-based, Staphylococcus aureus; settings: MHA, 37°C, 16-20 hours; for MIC: Staphylococcus aureus
Procedure: as §1, §2

[4] = system: VRSA VRS 1; experiment: MIC, agar plate two-fold dilution; type: cell-based, Staphylococcus aureus; settings: MHA, 37°C, 16-20 hours; for MIC: Staphylococcus aureus
Procedure: as §1, §2

[5] = system: Acinetobacter baumannii ARLG 1852; experiment: MIC, agar plate two-fold dilution; type: cell-based
Procedure: as §1, §2

[6] = system: Escherichia coli. ATCC 25923; experiment: MIC, agar plate two-fold dilution; type: cell-based; settings: MHA, 37°C, 16-20 hours
Procedure: as §1, §2

[7] = system: Klebsiella pneumoniae ATCC BAA 2472; experiment: MIC, agar plate two-fold dilution; type: cell-based
Procedure: as §1, §2

[8] = target: SaFabI (Staphylococcus aureus, UniProt Q6GI75); experiment: FabI enzymatic activity by NADH/NADPH oxidation (fluorescence), SaFabI; settings: SaFabI IC50, 15 nmol/L SaFabI; trans-octenoyl-CoA and NADPH; pH 6.5
Procedure: as §3, §4

[9] = Pharmacokinetic study in rats; type: in vivo, Sprague-Dawley (SD) rats; settings: oral gavage
Procedure: In this test experiment, a pharmacokinetic study of the compound in rats was conducted.
Twelve healthy adult female Sprague-Dawley (SD) rats (purchased from Beijing Vital River Laboratory Animal Technology Co., Ltd., China) with an average body weight of about 180-220 g were selected, and divided into four groups (n=3 per group). Two groups were administered via tail vein injection, while the other two groups were administered via oral gavage. Compound 1b was dissolved in a vehicle containing 5% DMSO, 30% PEG400, and 65% H2O, and Debio-1450 was dissolved in physiological saline, both of which were formed into a stable clear solution for later use. Animals were fasted for 12 hours before administration and resumed normal feeding 2 hours post administration. Then, blood samples were collected through the jugular vein at the following time points: 0.083 h, 0.25 h, 0.5 h, 1 h, 2 h, 4 h, 8 h, 24 h (tail vein injection) and 0.25 h, 0.5 h, 1 h, 2 h, 4 h, 8 h, 24 h (oral gavage administration), respectively, with a blood collection volume of about 200-400 µL. Whole blood collected at each time point was immediately transferred into an anticoagulant tube containing K2EDTA, then stored on ice in an insulated container. All samples were centrifuged within 15 minutes at 4600 r/min and 4°C for 5 minutes to separate plasma. The concentration of the compound in the plasma of each rat was determined using LC-MS/MS method, and the pharmacokinetic parameter was calculated from the drug concentration-time profile. Table 4 Oral Pharmacokinetic Parameters of Compound 1b/Debio-1450 In Rats

[10] = system: Escherichia coli.; experiment: MIC, agar plate two-fold dilution; type: cell-based; settings: ATCC25923; Escherichia coli. ATCC 25923; MHA, 37°C, 16-20 hours; read-out: Minimum Inhibitory Concentration MIC
Procedure: as §1, §2

[11] = female, Sprague-Dawley, rat, 10 mg/Kg, plasma

Sequence of SaFabI (Q6GI75 whole entry): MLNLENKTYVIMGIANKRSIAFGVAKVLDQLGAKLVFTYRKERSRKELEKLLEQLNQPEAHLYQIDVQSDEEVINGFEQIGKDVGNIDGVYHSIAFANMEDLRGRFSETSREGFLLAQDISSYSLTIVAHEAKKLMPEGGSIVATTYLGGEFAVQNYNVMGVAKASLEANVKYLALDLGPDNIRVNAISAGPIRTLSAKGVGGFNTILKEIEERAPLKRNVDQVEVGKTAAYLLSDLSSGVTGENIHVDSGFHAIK
Sequence of EcFabI (P0AEK4 whole entry): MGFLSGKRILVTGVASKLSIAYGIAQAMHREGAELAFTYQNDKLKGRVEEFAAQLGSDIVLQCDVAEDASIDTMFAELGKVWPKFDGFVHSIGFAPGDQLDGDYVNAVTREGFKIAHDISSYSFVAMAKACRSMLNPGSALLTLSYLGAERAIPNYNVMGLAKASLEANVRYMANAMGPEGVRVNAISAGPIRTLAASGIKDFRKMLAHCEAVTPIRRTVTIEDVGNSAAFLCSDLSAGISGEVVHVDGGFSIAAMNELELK

For `Cc1c(CN(C)C(=O)/C=C/c2cnc3c(c2)C2CC2(N)C(=O)N3)oc2ccccc12` (centres unmarked) [Compound 3a], the IC50 [1] was 7 nM, the MIC ([2]; MRSA|NRS384, read-out: Minimum Inhibitory Concentration MIC, MRSA NRS 384) was 0.03 µg/mL (≈ 0.0745 µM) and the MIC ([3]; ATCC29213|MSSA, read-out: Minimum Inhibitory Concentration MIC, MSSA ATCC 29213) was 0.03 µg/mL (≈ 0.0745 µM). The MIC ([4]; VRSA, read-out: Minimum Inhibitory Concentration MIC, VRSA VRS 1) was 0.5 µg/mL (≈ 1.24 µM), the MIC ([5]; Acinetobacter baumannii, ARLG1852, read-out: Minimum Inhibitory Concentration MIC) was greater than 32 µg/mL and the MIC ([6]; Escherichia coli, ATCC25923, read-out: Minimum Inhibitory Concentration MIC, Escherichia coli. ATCC 25923) was 8 µg/mL (≈ 19.9 µM). For the same molecule, the MIC ([7]; Klebsiella pneumoniae, BAA2472, read-out: Minimum Inhibitory Concentration MIC) was greater than 32 µg/mL and the IC50 [8] was 10 nM.
For `Cc1c(CN(C)C(=O)/C=C/c2cnc3c(c2)C2CC2(N)C(=O)N3)oc2ccccc12` (centres unmarked) [Compound 3b], the “Minimum Inhibitory Concentration MIC” value ([2]; MRSA NRS 384) was 0.016 µg/mL, the “Minimum Inhibitory Concentration MIC” value ([3]; MSSA ATCC 29213) was 0.016 µg/mL and the “Minimum Inhibitory Concentration MIC” value ([4]; VRSA VRS 1) was 0.25 µg/mL. The “Minimum Inhibitory Concentration MIC” value ([5]; Acinetobacter baumannii ARLG 1852, MHA, 37°C, 16-20 hours) was greater than 32 µg/mL, the “Minimum Inhibitory Concentration MIC” value ([6]; Escherichia coli. ATCC 25923) was 8 µg/mL and the “Minimum Inhibitory Concentration MIC” value ([7]; Klebsiella pneumoniae ATCC BAA 2472, MHA, 37°C, 16-20 hours) was greater than 32 µg/mL.
In the case of `Cc1c(CN(C)C(=O)/C=C/c2cnc3c(c2)CCC(=O)N3COP(=O)(O)O)oc2ccccc12` [Debio-1450], the Cmax [9, 11] is reported as 2210 ng/mL, the Tmax [9, 11] is reported as 0.67 h and the half-life [9, 11] is reported as 4.2 h. For the same molecule, the F ([9]; 10 mg/Kg vs tail vein injection) was 97%.
For `Cc1c(CN(C)C(=O)/C=C/c2cnc3c(c2)CCC(=O)N3)oc2ccccc12` [Debio-1452, reference compound], the IC50 [1] was 3 nM, the MIC ([2]; MRSA NRS 384, read-out: Minimum Inhibitory Concentration MIC) was less than 0.008 µg/mL and the MIC ([3]; MSSA ATCC 29213, read-out: Minimum Inhibitory Concentration MIC) was less than 0.008 µg/mL. The MIC ([4]; VRSA VRS 1, read-out: Minimum Inhibitory Concentration MIC) was 0.12 µg/mL (≈ 0.32 µM), the MIC ([5]; ARLG1852, Acinetobacter baumannii ARLG 1852, MHA, 37°C, 16-20 hours, read-out: Minimum Inhibitory Concentration MIC) was greater than 8 µg/mL and the MIC [10] was 4 µg/mL (≈ 10.7 µM). For the same molecule, the MIC ([7]; BAA2472, Klebsiella pneumoniae ATCC BAA 2472, MHA, 37°C, 16-20 hours, read-out: Minimum Inhibitory Concentration MIC) was greater than 8 µg/mL and the IC50 [8] was 2 nM.
